{"source": "patent US9296749B2", "about": "“Crystalline cis-(E)-4-(3-fluorophenyl)-2′,3′,4′,9′-tetrahydro-N,N-dimethyl-2′-(1-oxo-3-phenyl-2-propenyl)-spiro[cyclohexane-1,1′[1H]” (priority 2013, dated 2016)", "assay_type_in_all_cases": "physicochemical", "key": {"[1]": {"test": "Interconversion/slurry experiments of mixed crystalline forms in 2-propanol (XRPD)", "protocol": "About 25 mg of a specific crystalline form of compound (1) and 25 mg of the same or another crystalline form of compound (1) were charged into a vial and 1.0 mL of 2-Propanol was added. The vials were closed and the mixtures were stirred (via shaking using an Eppendorf Thermomixer, starting with 750 rpm, increased to 1000 rpm after 1 day) at an elevated temperature (30±2° C.) for 7 days. Subsequently the mixtures were cooled to 20±2° C. and stirred for an additional 2 hours.\nThe solids were then separated via filtration using a suction filter. To dry the thus obtained solid material an air flow was applied for 2 to 3 hours.\nThe crystalline form of the obtained materials was determined using XRPD. The experiments are summarized below in table 2 below.\nA mixture of two different crystalline forms of compound (1) was charged into a vial and 1.0 mL of 2-Propanol was added (details see table).\nThe vials were closed and the mixtures were stirred (by means of shaking, Eppendorf Thermomixer, 750 rpm at first, increased to 1000 rpm after 1 d) at elevated temperature (30±2° C.) for 7 days.\nSubsequently, the mixtures were cooled to 20±2° C. and stirred for additional 2 hours.\nThe solids were then isolated via filtration using a suction filter. The air flow from the suction pump was applied for 2 to 3 hours to dry the isolated solid."}, "[2]": {"test": "Chemical stability of crystalline forms, open-vial storage (content by HPLC, crystalline form by XRPD)", "protocol": "Samples of compound 1 in different crystalline forms were stored in open vials under controlled conditions at different temperatures and rel. humidities for 28 days. Prior to storage and after 14 and 28 days the content of compound (1) in the sample was determined via HPLC and the crystalline form was measured via XRPD."}, "[3]": {"test": "Chemical stability in pharmaceutical compositions (excipient mixtures with 10% compound (1))", "conditions": "listed as A", "protocol": "To test the chemical stability, i.e. compatibility of different crystalline forms of compound (1), solid multi component mixtures were prepared comprising well established excipients used for solid oral dosage form and having different functions therein. The single components of each mixture were exactly weighed and intensively triturated using a mortar and a pestle.\n10 g of the final mixtures were separately filled into glass vials (open or closed) and stored under the conditions outlined below in table 13. Samples were taken and analyzed initially and after 1, 2 and 3 months with respect to the content of compound (1) within the mixtures."}, "[4]": {"test": "Dynamic vapor sorption (DVS), hygroscopicity", "protocol": "Crystalline forms were characterized by dynamic vapor sorption (DVS) using a Porotec DVS 1000 or a SMS DVS Intrinsic water vapor sorption analyzer. For the DVS analysis, a step width of 10% r.h. was applied allowing the samples to equilibrate and reach weight constancy (±0.002%) for at least 10 min on each step. All measurements were performed according to the following program: 50% r.h.→90% r.h., 90→0% r.h., 0%→90% r.h., 90%→50% r.h. A cycle with increasing humidity is also known as a sorption cycle, a cycle with decreasing humidity is also known as a desorption cycle. The details of the respective DVS measurements are shown below in table 51 and discussed further below.\nThe hygroscopicity of the respective crystalline forms determined via the DVS measurements was classified according to the ranges for mass increase defined in the European Pharmacopoeia: very hygroscopic (vh): increase of the mass ≧15%; hygroscopic (h): increase of the mass is less than 15% and equal or greater than 2%; slightly hygroscopic (sh): increase of the mass is less than 2% and equal or greater than 0.2%; not hygroscopic (nh): increase of the mass is less than 0.2%; deliquescent (d): sufficient water is absorbed to form a liquid."}, "[5]": {"test": "Slurry of a single crystalline form in solvent, resulting form by XRPD", "protocol": "A quantity of compound (1) is charged into a vial or flask and an amount of solvent is added. The resulting suspension/solution is stirred (e.g. orbital shaker or overhead-stirrer) for a given time at a specific temperature. Subsequently, if the suspension/solution was stirred at an elevated temperature, it is allowed to cool to room temperature or any other predetermined temperature to precipitate or crystallize the product and the solvent is removed by filtration.\nThe vial was closed and the mixture (a white suspension) was stirred (by means of shaking, 400 rpm, PLS Synthesiser) at room temperature (22±2° C.) for 13 days.\nThe solid was separated using a suction filter and dried by applying an air flow for additional 5 to 30 minutes (until the solid appeared to be dry).\nThe vial was closed and the suspension was stirred (by means of shaking, PLS shaker, 400 rpm) at an elevated temperature (40° C.±2) for 20 h.\nThe mixture was cooled to 20±2° C. The solid was separated using a suction filter (G4) and dried by applying an air flow until the sample appeared to be dry. The white solid was subsequently left for 1 h at ambient conditions."}}, "data": [{"compound": "CN(C)[C@]1(c2cccc(F)c2)CC[C@]2(CC1)c1[nH]c3ccccc3c1CCN2C(=O)/C=C/c1ccccc1", "note": "[A17.9]", "values": [{"measurement": "resulting crystalline form", "setting": "[1]; 1.0 mL 2-Propanol, 30±2° C. 7 days, then 20±2° C. 2 hours, XRPD", "value": "A + H"}]}, {"compound": "CN(C)[C@]1(c2cccc(F)c2)CC[C@]2(CC1)c1[nH]c3ccccc3c1CCN2C(=O)/C=C/c1ccccc1", "note": "[crystalline form A, cis-(E)-4-(3-Fluorophenyl)-2′,3′,4′,9′-tetrahydro-N,N-dimethyl-2′-(1-oxo-3-phenyl-2-propenyl)-spiro[cyclohexane-1,1′[1H]-pyrido[3,4-b]indol]-4-amine]", "values": [{"measurement": "Content cmpd (1)", "setting": "[2]; 40° C., 75% r.H., storage 0 d, listed as A", "value": 99.58, "unit": "%"}, {"measurement": "Content cmpd (1)", "setting": "[2]; 40° C., 75% r.H., storage 14 d, listed as A", "value": 99.63, "unit": "%"}, {"measurement": "Content cmpd (1)", "setting": "[2]; 40° C., 75% r.H., storage 28 d, listed as A", "value": 99.39, "unit": "%"}, {"measurement": "Content cmpd (1)", "setting": "[2]; 50° C., storage 0 d, listed as A", "value": 99.58, "unit": "%"}, {"measurement": "Content cmpd (1)", "setting": "[2]; 50° C., storage 14 d, listed as A", "value": 99.49, "unit": "%"}, {"measurement": "Content cmpd (1)", "setting": "[2]; 50° C., storage 28 d, listed as A", "value": 99.37, "unit": "%"}, {"measurement": "content of compound (1) within the mixture", "setting": "[3]; Lactose monohydrate, PVP25, Crospovidone, Talcum, 40° C., 75% rel. hum., 0 month", "value": 99.66}, {"measurement": "content of compound (1) within the mixture", "setting": "[3]; Lactose monohydrate, PVP25, Crospovidone, Talcum, 40° C., 75% rel. hum., 1 month", "value": 99.93}, {"measurement": "content of compound (1) within the mixture", "setting": "[3]; Lactose monohydrate, PVP25, Crospovidone, Talcum, 40° C., 75% rel. hum., 2 months", "value": 99.72}, {"measurement": "content of compound (1) within the mixture", "setting": "[3]; Lactose monohydrate, PVP25, Crospovidone, Talcum, 40° C., 75% rel. hum., 3 months", "value": 99.86}, {"measurement": "content of compound (1) within the mixture", "setting": "[3]; Lactose monohydrate, PVP25, Crospovidone, Talcum, 50° C. dry, 0 month", "value": 99.66}, {"measurement": "content of compound (1) within the mixture", "setting": "[3]; Lactose monohydrate, PVP25, Crospovidone, Talcum, 50° C. dry, 1 month", "value": 99.58}, {"measurement": "content of compound (1) within the mixture", "setting": "[3]; Lactose monohydrate, PVP25, Crospovidone, Talcum, 50° C. dry, 2 months", "value": 99.54}, {"measurement": "content of compound (1) within the mixture", "setting": "[3]; Lactose monohydrate, PVP25, Crospovidone, Talcum, 50° C. dry, 3 months", "value": 99.56}, {"measurement": "content of compound (1) within the mixture", "setting": "[3]; Microcrystalline cellulose, HPMC 6 mPas, L-HPC LH21, magnesium stearate, 40° C., 75% rel. hum., 0 month", "value": 90.64}, {"measurement": "content of compound (1) within the mixture", "setting": "[3]; Microcrystalline cellulose, HPMC 6 mPas, L-HPC LH21, magnesium stearate, 40° C., 75% rel. hum., 1 month", "value": 99.61}, {"measurement": "content of compound (1) within the mixture", "setting": "[3]; Microcrystalline cellulose, HPMC 6 mPas, L-HPC LH21, magnesium stearate, 40° C., 75% rel. hum., 2 months", "value": 99.60}, {"measurement": "content of compound (1) within the mixture", "setting": "[3]; Microcrystalline cellulose, HPMC 6 mPas, L-HPC LH21, magnesium stearate, 40° C., 75% rel. hum., 3 months", "value": 99.66}, {"measurement": "content of compound (1) within the mixture", "setting": "[3]; Microcrystalline cellulose, HPMC 6 mPas, L-HPC LH21, magnesium stearate, 50° C. dry, 0 month", "value": 99.64}, {"measurement": "content of compound (1) within the mixture", "setting": "[3]; Microcrystalline cellulose, HPMC 6 mPas, L-HPC LH21, magnesium stearate, 50° C. dry, 1 month", "value": 99.59}, {"measurement": "content of compound (1) within the mixture", "setting": "[3]; Microcrystalline cellulose, HPMC 6 mPas, L-HPC LH21, magnesium stearate, 50° C. dry, 2 months", "value": 99.59}, {"measurement": "content of compound (1) within the mixture", "setting": "[3]; Microcrystalline cellulose, HPMC 6 mPas, L-HPC LH21, magnesium stearate, 50° C. dry, 3 months", "value": 99.62}, {"measurement": "change in mass with increasing/decreasing relative humidity", "setting": "[4]", "value": "−0.2 to 0.1", "unit": "%"}, {"measurement": "hysteresis", "setting": "[4]", "value": "≤ 0.5", "unit": "%"}, {"measurement": "hygroscopicity", "setting": "[4]; classes of European Pharmacopoeia", "value": "not hygroscopic or just slightly hygroscopic"}, {"measurement": "thermodynamic stability relative to the other crystalline forms", "setting": "[1]; conclusion from the interconversion experiments in 2-Propanol", "value": "thermodynamically more stable than the other crystalline forms"}, {"measurement": "resulting crystalline form", "setting": "[5]; suspension in ethanol, 40° C.±2, 20 h", "value": "crystalline form A"}, {"measurement": "resulting crystalline form", "setting": "[5]; suspension in ethylacetate/water 70:30, room temperature (22±2° C.), 13 days", "value": "crystalline form A"}]}, {"compound": "CN(C)[C@]1(c2cccc(F)c2)CC[C@]2(CC1)c1[nH]c3ccccc3c1CCN2C(=O)/C=C/c1ccccc1", "note": "[crystalline form D, cis-(E)-4-(3-Fluorophenyl)-2′,3′,4′,9′-tetrahydro-N,N-dimethyl-2′-(1-oxo-3-phenyl-2-propenyl)-spiro[cyclohexane-1,1′[1H]-pyrido[3,4-b]indol]-4-amine]", "values": [{"measurement": "Content cmpd (1)", "setting": "[2]; 40° C., 75% r.H., storage 0 d, listed as D", "value": 84.61, "unit": "%"}, {"measurement": "Content cmpd (1)", "setting": "[2]; 40° C., 75% r.H., storage 14 d, listed as D", "value": 84.27, "unit": "%"}, {"measurement": "Content cmpd (1)", "setting": "[2]; 40° C., 75% r.H., storage 28 d, listed as D", "value": 83.92, "unit": "%"}, {"measurement": "Content cmpd (1)", "setting": "[2]; 50° C., storage 0 d, listed as D", "value": 84.61, "unit": "%"}, {"measurement": "Content cmpd (1)", "setting": "[2]; 50° C., storage 14 d, listed as D", "value": 84.65, "unit": "%"}, {"measurement": "Content cmpd (1)", "setting": "[2]; 50° C., storage 28 d, listed as D", "value": 83.54, "unit": "%"}, {"measurement": "hysteresis (in words)", "setting": "[4]; sorption and desorption behavior", "value": "no significant hysteresis"}, {"measurement": "transformation into another polymorphic form", "setting": "[5]; suspensions of Table 6: acetonitrile, acetone/water or water, RT or 50° C., 3 to 5 d", "value": "did not transform into another polymorphic form"}]}, {"compound": "CN(C)[C@]1(c2cccc(F)c2)CC[C@]2(CC1)c1[nH]c3ccccc3c1CCN2C(=O)/C=C/c1ccccc1", "note": "[crystalline form E, cis-(E)-4-(3-Fluorophenyl)-2′,3′,4′,9′-tetrahydro-N,N-dimethyl-2′-(1-oxo-3-phenyl-2-propenyl)-spiro[cyclohexane-1,1′[1H]-pyrido[3,4-b]indol]-4-amine]", "values": [{"measurement": "Content cmpd (1)", "setting": "[2]; 40° C., 75% r.H., storage 0 d, listed as E", "value": 99.76, "unit": "%"}, {"measurement": "Content cmpd (1)", "setting": "[2]; 40° C., 75% r.H., storage 14 d, listed as E", "value": 99.80, "unit": "%"}, {"measurement": "Content cmpd (1)", "setting": "[2]; 40° C., 75% r.H., storage 28 d, listed as E", "value": 99.50, "unit": "%"}, {"measurement": "Content cmpd (1)", "setting": "[2]; 50° C., storage 0 d, listed as E", "value": 99.76, "unit": "%"}, {"measurement": "Content cmpd (1)", "setting": "[2]; 50° C., storage 14 d, listed as E", "value": 97.25, "unit": "%"}, {"measurement": "Content cmpd (1)", "setting": "[2]; 50° C., storage 28 d, listed as E", "value": 95.53, "unit": "%"}, {"measurement": "hysteresis (in words)", "setting": "[4]; between 10% and 40% relative humidity", "value": "significant hysteresis"}]}]}
